Test results: article PMC3023919 (Chemistry & biology, 2010)

Legend:
hCB2 WT = hCB2 WT (Homo sapiens, UniProt P34972); experiment: Saturation-binding assay with [^3H]-CP55940; details: HEK293 membranes; mean (95% CI)
hCB2 C6.47(257)S = hCB2 C6.47(257)S (Homo sapiens, UniProt P34972, C257S); experiment: Saturation-binding assay with [^3H]-CP55940; details: HEK293 membranes; mean (95% CI)
hCB2 C7.38(284)S = hCB2 C7.38(284)S (Homo sapiens, UniProt P34972, C284S); experiment: Saturation-binding assay with [^3H]-CP55940; details: HEK293 membranes; mean (95% CI)
hCB2 C137S = hCB2 C137S (Homo sapiens, UniProt P34972, C134S); experiment: Saturation-binding assay with [^3H]-CP55940; details: HEK293 membranes; mean (95% CI)
hCB2 C175S = hCB2 C175S (Homo sapiens, UniProt P34972, C175S); experiment: Saturation-binding assay with [^3H]-CP55940; details: HEK293 membranes; mean (95% CI)
hCB2 C7.38(284)A = hCB2 C7.38(284)A (Homo sapiens, UniProt P34972, C284A); experiment: Saturation-binding assay with [^3H]-CP55940; details: HEK293 membranes; mean (95% CI)
hCB2 C7.42(288)A = hCB2 C7.42(288)A (Homo sapiens, UniProt P34972, C288A); experiment: Saturation-binding assay with [^3H]-CP55940; details: HEK293 membranes; mean (95% CI)
[1] = target: hCB2 C7.38(284)7.42(288)A (Homo sapiens, UniProt P34972, C284A/C288A); experiment: Saturation-binding assay with [^3H]-CP55940; details: HEK293 membranes; mean (95% CI)
hCB2 C1.39(40)S = hCB2 C1.39(40)S (Homo sapiens, UniProt P34972, C40S); experiment: Saturation-binding assay with [^3H]-CP55940; details: HEK293 membranes, mean (95% CI)
hCB2 C313S = hCB2 C313S (Homo sapiens, UniProt P34972, C313S); experiment: Saturation-binding assay with [^3H]-CP55940; details: HEK293 membranes; mean (95% CI)
[2] = target: hCB2 C7.38(284)7.42(288)S (Homo sapiens, UniProt P34972, C284S/C288S); experiment: Saturation-binding assay with [^3H]-CP55940; details: HEK293 membranes; mean (95% CI)
hCB2 C7.42(288)S = hCB2 C7.42(288)S (Homo sapiens, UniProt P34972, C288S); experiment: Saturation-binding assay with [^3H]-CP55940; details: HEK293 membranes; mean (95% CI)
hCB2 C6.47(257)S mutant = details: competitive binding with [^3H]-WIN55212-2; ref Pei et al., 2008; cited from earlier work
hCB2 = details: read-out: hCB2 Ki; ref Rinaldi-Carmona et al., 1998; cited from earlier work

Sequence of hCB2 C1.39(40)S (P34972 whole entry C40S): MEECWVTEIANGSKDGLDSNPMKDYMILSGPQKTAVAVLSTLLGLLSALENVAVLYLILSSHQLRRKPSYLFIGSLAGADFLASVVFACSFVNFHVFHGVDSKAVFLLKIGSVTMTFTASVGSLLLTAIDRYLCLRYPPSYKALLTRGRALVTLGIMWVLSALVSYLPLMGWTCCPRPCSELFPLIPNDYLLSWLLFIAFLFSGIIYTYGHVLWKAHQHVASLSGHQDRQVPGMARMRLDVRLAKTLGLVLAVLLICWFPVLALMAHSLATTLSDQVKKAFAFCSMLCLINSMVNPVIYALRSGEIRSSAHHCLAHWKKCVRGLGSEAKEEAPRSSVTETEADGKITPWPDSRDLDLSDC
Sequence of hCB2 WT (P34972 whole entry): as the sequence (P34972 whole entry C40S) above, with S40C counted along it
Sequence of hCB2 C313S (P34972 whole entry C313S): as the sequence (P34972 whole entry C40S) above, with S40C, C313S counted along it
Sequence of hCB2 C7.38(284)7.42(288)S (P34972 whole entry C284S/C288S): as the sequence (P34972 whole entry C40S) above, with S40C, C284S, C288S counted along it
Sequence of hCB2 C7.42(288)S (P34972 whole entry C288S): as the sequence (P34972 whole entry C40S) above, with S40C, C288S counted along it
Sequence of hCB2 C7.38(284)A (P34972 whole entry C284A): as the sequence (P34972 whole entry C40S) above, with S40C, C284A counted along it
Sequence of hCB2 C7.38(284)7.42(288)A (P34972 whole entry C284A/C288A): as the sequence (P34972 whole entry C40S) above, with S40C, C284A, C288A counted along it
Sequence of hCB2 C7.42(288)A (P34972 whole entry C288A): as the sequence (P34972 whole entry C40S) above, with S40C, C288A counted along it
Sequence of hCB2 C6.47(257)S (P34972 whole entry C257S): as the sequence (P34972 whole entry C40S) above, with S40C, C257S counted along it
Sequence of hCB2 C137S (P34972 whole entry C134S): as the sequence (P34972 whole entry C40S) above, with S40C, C134S counted along it
Sequence of hCB2 C175S (P34972 whole entry C175S): as the sequence (P34972 whole entry C40S) above, with S40C, C175S counted along it
Sequence of hCB2 C7.38(284)S (P34972 whole entry C284S): as the sequence (P34972 whole entry C40S) above, with S40C, C284S counted along it

Compound | [^3H]-CP55940 Bmax (hCB2 WT) | [^3H]-CP55940 Bmax (hCB2 C6.47(257)S) | [^3H]-CP55940 Bmax (hCB2 C7.38(284)S) | [^3H]-CP55940 Bmax (hCB2 C137S) | [^3H]-CP55940 Bmax (hCB2 C175S) | [^3H]-CP55940 Bmax (hCB2 C7.38(284)A) | [^3H]-CP55940 Bmax (hCB2 C7.42(288)A) | [^3H]-CP55940 Bmax [1] | [^3H]-CP55940 Bmax (hCB2 C1.39(40)S) | [^3H]-CP55940 Bmax (hCB2 C1.39(40)S; listed as CP55940) [pmol/mg] | [^3H]-CP55940 Bmax (hCB2 C313S) | [^3H]-CP55940 Bmax [2] | [^3H]-CP55940 Bmax (hCB2 C7.42(288)S) | increased affinity relative to WT hCB2 (hCB2 C6.47(257)S mutant) | Ki (hCB2) [nM]
CCCCCCC(C)(C)c1ccc([C@@H]2C[C@H](O)CC[C@H]2CCCO)c(O)c1 [[^3H]-CP55940] | 1.68 (1.61~1.74) pmol/mg | 1.58 (1.50~1.66) pmol/mg | 1.28 (1.21~1.36) pmol/mg | 1.50 (1.31~1.70) pmol/mg | 1.69 (1.61~1.78) pmol/mg | 1.15 (1.03~1.26) pmol/mg | 1.93 (1.69~2.17) pmol/mg | 1.12 (1.04~1.20) pmol/mg | 5.45 (4.99~5.92) pmol/mg | 5.45 | 1.07 (1.01~1.13) pmol/mg | 1.38 (1.28~1.48) pmol/mg | 1.07 (1.01~1.13) pmol/mg |  | 
SR144528 |  |  |  |  |  |  |  |  |  |  |  |  |  | 2-3 fold | 0.6
